The text below walks through data of ChEMBL document CHEMBL1201862, “PubChem BioAssay data set” (2004).

Molecules are shown by their SMILES.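 Where inhibition never reached the appropriate level, the endpoint shown equals the highest concentration tested. Otherwise, values were interpolated linearly from a five-concentration, 48-hour dose response in 96-well plates. GI50 is the concentration that inhibits growth by half.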 Active and inactive are the calls of the source. Rule as the data show it: active = GI50 up to about 1.1 µM and inactive = higher.

Assay in all cases: NCI anticancer screen, dose series, 48 h
Test [1] has as its system 786-0.
Test [2] has as its system A498.
For test [3], the system named is A549.
Test [4] has as its system BT-549.
Test [5] relates to EKVX.
Test [6] has as its system HCT-116.
Test [7] deals with HT-29.
Test [8] has as its system IGROV-1.
Test [9] deals with MOLT-4.
Test [10] concerns NCI-H522.
For test [11], the system named is NCI/ADR-RES.
The subject of test [12] is OVCAR-3.
Test [13] relates to OVCAR-4.
Test [14] concerns PC-3.
Test [15] relates to RPMI-8226.
In test [16] the test system is SK-MEL-5.
Test [17] has as its system SNB-19.
Test [18] relates to SNB-75.
Test [19] relates to TK-10.
Test [20] relates to UACC-257.

On to `Cc1cccc2c(N)c3cccc(C(=O)NCC[N+](C)(C)Cc4c([N+](=O)[O-])ncn4C)c3nc12`, for which the GI50 in [1] is 6.5 µM (inactive); in [2], 47.6 µM (inactive); in [3] it was 3.78 µM (inactive); in [4] it was 46.1 µM (inactive); in test [5] it was > 66.1 µM (inactive); in [6], 26.4 µM (inactive). Moreover, the GI50 in [7] is 12.7 µM (inactive); in test [8] it was 27.3 µM (inactive); in [9], 3.05 µM (inactive); in test [10], 12.4 µM (inactive); in [11], > 49.9 µM (inactive); in test [12], 41.8 µM (inactive). The GI50 in [13] was > 48.2 µM (inactive); in test [14], 36.6 µM (inactive); in test [15], 31.4 µM (inactive); in test [16], 26.1 µM (inactive); in [17] it was 25.8 µM (inactive); in test [18] it was 27.4 µM (inactive). For the same compound, the values for the GI50 in [19] and in test [20] were 56.2 µM (inactive) and 49.9 µM (inactive), respectively.
As for `COc1ccc2c(CCN)c(C(=O)O)[nH]c2c1`, the GI50 in [1], in test [2], in test [3], in test [4], in [5] and in test [6] was > 100 µM (inactive) each time. The GI50 was > 100 µM (inactive) in [7]; > 100 µM (inactive) in [8]; 1 µM (active) in [9]; > 100 µM (inactive) in [10]; > 100 µM (inactive) in test [11]; > 100 µM (inactive) in test [12]. In addition, the GI50 in [13], in test [14], in test [15], in [16], in [17] and in test [18] was > 100 µM (inactive) throughout. The GI50 in test [19] and in [20] was > 100 µM (inactive) each time.
Turning to `Nc1ccc(C(=O)Nc2ccccc2N)cc1` [DINALINE], the GI50 is > 66.4 µM (inactive) in test [1]; 27.5 µM (inactive) in [2]; 38.6 µM (inactive) in test [3]; 67.6 µM (inactive) in test [4]; 66.2 µM (inactive) in test [5]; 14.2 µM (inactive) in test [6]. Further, the GI50 is 25.9 µM (inactive) in test [7]; 31.1 µM (inactive) in test [8]; 11.8 µM (inactive) in [9]; 11.1 µM (inactive) in test [10]; 3.21 µM (inactive) in test [11]; 29.1 µM (inactive) in test [12]. Moreover, the GI50 in test [13] was 20.2 µM (inactive); in test [14] it was 31.5 µM (inactive); in test [15], 5.68 µM (inactive); in test [16], 16.3 µM (inactive); in [17] it was > 100 µM (inactive); in test [18], > 36.3 µM (inactive). Besides, the GI50 is 6.32 µM (inactive) in [19] and 17.7 µM (inactive) in test [20].
On to `CO[C@H]1[C@H](O)[C@H](O[C@H]2CC[C@@]3(C)[C@H](CC[C@@H]4[C@@H]3CC[C@]3(C)[C@@H](C5=CC(=O)OC5)CC[C@]43O)C2)O[C@@H](C)[C@@H]1O` [NERIIFOLIN], for which the GI50 in test [1] is 0.000439 µM (active); in [2], 0.00863 µM (active); in [3], 0.000379 µM (active); in test [4], 0.000429 µM (active); in test [5], 0.000473 µM (active); in [6] it was 0.000689 µM (active). Moreover, the GI50 in test [7] was 0.000615 µM (active); in [8], 0.000526 µM (active); in test [9], 0.000377 µM (active); in [10] it was 0.000151 µM (active); in test [11], 0.000546 µM (active); in [12], 0.000515 µM (active). The GI50 is 0.00028 µM (active) in [13]; 0.000724 µM (active) in [14]; 0.00111 µM (active) in test [15]; 0.000838 µM (active) in [16]; 0.00094 µM (active) in test [17]; 0.000483 µM (active) in test [18]. The GI50 in [19] is 0.000859 µM (active); in [20], 0.00167 µM (active).
As to `CC(=O)[C@H]1CC[C@H]2[C@@H]3CCC4=CC(=O)CC[C@]4(C)[C@H]3CC[C@]12C` [PROGESTERONE], the GI50 in [1] is 20.6 µM (inactive); in test [2], 24.5 µM (inactive); in test [3], 25.3 µM (inactive); in [4] it was 16 µM (inactive); in test [5], 1.16 µM (inactive); in test [6], 14.5 µM (inactive). The GI50 in test [7] was 15 µM (inactive); in test [8], 24.4 µM (inactive); in [9], 12.1 µM (inactive); in [10] it was 15.6 µM (inactive); in test [11], 13.7 µM (inactive); in test [12], 17.3 µM (inactive). Besides, the GI50 was 18.7 µM (inactive) in test [13]; 14.4 µM (inactive) in test [14]; 3.24 µM (inactive) in test [15]; 12.1 µM (inactive) in [16]; 24.1 µM (inactive) in [17]; 26.1 µM (inactive) in [18]. For the same compound, the GI50 was 23.9 µM (inactive) in test [19] and 12.9 µM (inactive) in [20].
